Source: paper PMC6389703, “Identification of Biologically Active Ganoderma lucidum Compounds and Synthesis of Improved Derivatives That Confer Anti-cancer Activities in vitro” (Frontiers in Pharmacology, 2019)

Tests used:
SUM-190 cells = assay: Cell viability assay, SUM-190; type: cell-based; settings: Homo sapiens, SUM190; Figure 4E
Experimental: Either 1 × 10^3–4.8 × 10^3 or 4 × 10^2–1.2 × 10^3 cells were seeded to each well of 96- or 384-well white polystyrene flat-bottomed plates (3610 or 8804BC, Corning) in 100 μL or 30 μL media per well, respectively. The concentrations used were experimentally determined to ensure logarithmic growth during the duration of the experiment and prevent adverse effects on cell growth by DMSO exposure. The plates were incubated at 37°C in 5% CO2 for 24 h before treatment. Stock solutions of test compounds (10 mM in DMSO) in nine 3-fold serial dilutions were dispensed via pintool (Biomek). The final concentration of DMSO was 0.3% (v/v) in each well. […] Luminescence was recorded in an Envision plate reader (PerkinElmer). […]
For the CTG assay, 3 or 4 replicate assays were conducted for each experimental condition, and a minimum of 3 independent experiments were conducted for cellular assays. The mean luminescence of each experimental treatment group was normalized as a percentage of the mean intensity of untreated controls. EC50 values (μM) were calculated by Pipeline Pilot Software (Accelrys, Enterprise Platform, San Diego, CA, United States). EC50 values (μM) from the viability assay were calculated from dose response curve-fitting via non-linear regression by using GraphPad Prism (Version 7.0, San Diego, CA, United States). […]

SUM-149 cells [1] = assay: Cell cycle assay (PI, flow cytometry); type: cell-based, human; settings: 48 h
Experimental: SUM-149 cells were treated for 48 h with EP, then collected and washed in 1X PBS. The cells (5 × 10^5) were fixed and permeabilized in 70% ethanol at -20°C until further analysis. To measure the DNA content, the cells were washed and resuspended in 150 μL of PBS buffer then incubated in 100 μL of 100 μg/mL RNase A (MilliporeSigma, Burlington, MA, United States) for 15 min at RT, then 250 μL of 50 μg/mL Propidium Iodide (MilliporeSigma) was added. Samples were incubated at RT for 10 min and analyzed on a BD FACS Canto II flow cytometer (BD Biosciences, San José, CA, United States). Data were analyzed by using FlowJo software (V10, FlowJo, LLC, Ashland, OR, United States).

[2] = test system: AKT isoforms, BCL-XL, Cyclin D1, c-Myc, PARP in SUM-149 cells; assay: Immunoblots of signaling proteins; type: cell-based, human
Description: Breast cancer cells treated with vehicle or EP were lysed, and equal total protein was resolved via SDS-PAGE and immunoblotted with indicated antibodies (Cell Signaling Technologies, Abcam, Sigma) as described previously ([Castillo-Pichardo et al., 2009]; [Martinez-Montemayor et al., 2011]; [Suarez-Arroyo et al., 2016]).

MDA-MB-231 cells = assay: ApoTox-Glo Triplex assay, MDA-MB-231; type: cell-based, human
Experimental: Cells (9.5 × 10^4/well in 75 μL of fresh medium) were dispensed in 96-well black flat bottom (8807BC, Corning) plates. The cells were incubated for 12 h at 37°C and then treated with compounds (25 μL) for 24 h. DMSO was used as a negative control, and staurosporine was used as the positive control. […] Then, the Caspase-Glo® 3/7 Reagent was added; plates were mixed briefly by orbital shaking (300-500 rpm for ∼30 s), followed by an additional 30 min incubation at RT. Then luminescence, which correlates with caspase 3/7 activation, was recorded with a plate reader to […] apoptosis induction.

SUM-149 cells [3] = assay: ROS measurement (CellROX green), SUM-149; type: cell-based, human; settings: EP 20 μM
Experimental: SUM-149 or MDA-MB-231 were plated in 96-well plates at a density of 2 × 10^4 and 1 × 10^4 cells/well, respectively, in black 96-well clear bottom tissue culture plates and incubated for 24 h at 37°C. The mRuby-Mito-7 plasmid was obtained from Addgene (#55874 from Michael Davidson). A stable clone of MCF-7 was generated by using Fugene 6 (Roche) to transfect cells (2 × 10^5) with plasmid (2.0 μg) under neomycin selection. A stable cell line was selected by using G418 (300 μg/mL) for 2 weeks, sorted by flow cytometry, and maintained under G418 thereafter. Transfected MCF-7 cells were plated at a density of 2 × 10^4 cells/well in black 96-well clear bottom tissue culture plates and incubated overnight at 37°C. To test for ROS formation and remove background, cells were replenished with fresh PBS with 2% FBS and treated with the desired compounds for 1 h at 37°C. DMSO (0.5%) was used as a negative control, while Menadione (Mena, at 10 μM) or t-Butyl hydroperoxide (TBHP) at 100 μM final concentration were used as a positive control. To evaluate the compounds’ effects on ROS formation inhibition, the free radical scavenger N-acetyl cysteine (NAC) was used. Cells were treated with or without NAC (500 μM or 100 μM) for 1 h, then CellROX® green reagent (Molecular Probes #C10444) was added to a final concentration of 5 μM, and cells were incubated for an additional 30 min at 37°C. Cells were then washed 2× with PBS, followed by fixation with 4% paraformaldehyde (v/v) for 15 min, and 2 more washes with PBS. Fluorescence intensity was measured in a Clariostar® plate reader (BMG LABTECH, Cary, NC, United States) at 535 nm.

[4] = Solubility in DMSO or water; settings: unless warmed up to 30°C

CC(C)[C@@H](C)/C=C/[C@@H](C)[C@H]1CC[C@@H]2[C@]1(C)CC[C@H]1[C@]23C=C[C@]2(C[C@@H](O)CC[C@]12C)OO3 [EP, ergosterol peroxide]
EC50 (SUM-190 cells): 43 µM | percentage of cells in G0 (SUM-149 cells [1]; 20μM): 1.7% | percentage of cells in G1 (SUM-149 cells [1]; 20μM): 81% | percentage of cells in G2/M (SUM-149 cells [1]; 20μM): 9.8% | percentage of cells in S (SUM-149 cells [1]; 20μM): 5.4% | increase in percentage of cells in G1 phase (SUM-149 cells [1]; vs vehicle): ~20% | reduction of the percentage of cells in G2/M (SUM-149 cells [1]; vs vehicle): ~10% | AKT3 levels ([2]; SUM-149): not affecting AKT3 levels | p-AKT2 ([2]; SUM-149): without affecting p-AKT2 | PARP cleavage ([2]; SUM-149, 30 μM, 24 h): induces PARP cleavage | total PARP levels ([2]; SUM-149, 30 μM, 24 h): significantly reduces total PARP levels | AKT2 levels ([2]; SUM-149, 72 h): decreases | expression of BCL-XL ([2]; SUM-149, 72 h): significantly reduces | expression of Cyclin D1 ([2]; SUM-149, 72 h): significantly reduces | expression of c-Myc ([2]; SUM-149, 72 h): significantly reduces | expression of p-AKT1 (Ser 473) ([2]; SUM-149, 72 h): significantly decreases | total AKT1 levels ([2]; SUM-149, 72 h): decreases total AKT1 | cytotoxicity by membrane integrity (MDA-MB-231 cells; MDA-MB-231): increased cytotoxicity | caspase 3/7 activity (MDA-MB-231 cells; MDA-MB-231, 24 h): increase caspase 3/7 activity | viability (GF-AFC) (MDA-MB-231 cells; MDA-MB-231, 24 h): decrease viability | ROS formation (fold) (SUM-149 cells [3]; 1 h): fourfold | reduction in ROS formation in the presence of NAC (SUM-149 cells [3]; NAC 500 μM, menadione 10 μM): about 20% | solubility properties in DMSO or water [4]: poor
